# Assay results published in US20180051284A1, “INHIBITORS OF MIR-17-92 CLUSTER FOR ANTI-TUMOR ACTIVITY IN MULTIPLE MYELOMA AND OTHER MALIGNANCIES” (priority 2014, published 2018).
# l = locked nucleic acid (LNA); d = 2'-deoxy (DNA)
# Legend:
# [1] = test system: NCI-H929 cells; assay: Flow cytometry of 7-AAD stained cells after transfection; type: cell-based, Human; details: transfection 25 nM, as compared to RNase-free water
# Experimental: (§1) 3×10^5 cells were transfected using Neon Transfection System (Invitrogen, Calif.,U.S.), (2 pulses at 1150, 30ms). The transfection efficiency evaluated by flow-cytometric analysis relative to a FAM dye—labeled anti-miR—negative control reached 85% to 90%.
# (§2) 7-aminoactinomycin was used to evaluate cell viability. The staining was performed according to manufacturer's instructions.
# [2] = test system: RPMI-8226, KMS-12-BM and NCI-H929 cells; assay: Cell viability by flow cytometry of 7-AAD stained cells, gapmer versus single miRNA inhibitors; type: cell-based, Human; details: transfection with 25 nM
# Experimental: Commercial miRNA inhibitors for miR-17a, miR-18a, miR-19a, miR-19b, miR-20a and miR-92a were purchased from Ambion (Applied Biosystems, Calif., U.S.).
# as §1, §2
# To this aim, we transfected three different MM cell lines with 25 nM of either gapmer_06 or miRNA inhibitors from Ambion or RNase free water as control.
# [3] = test system: RPMI-8226, KMS-12-BM and NCI-H929 MM cells; assay: AnnexinV/7-AAD staining apoptosis after transfection; type: cell-based, Human; details: transfection with 25 nM; 48 hours
# Experimental: as §1, §2
# [4] = test system: CD138+ plasma cells derived from MGUS patients; assay: Cell viability (7-AAD) of MGUS plasma cells after gymnotic exposure; type: cell-based, Human; details: 6 days gymnotic exposure, 5 μM
# Experimental: Following informed consent approved by our University Hospital Ethical Commitee, CD138+cells were isolated from the BM aspirates of both Monoclonal gammopathy of undetermined significance (MGUS) and myeloma patients by Ficoll-Hypaque density gradient sedimentation followed by antibody-mediated positive selection using anti-CD138 magnetic activated cell separation microbeads (Miltenyi Biotech, Gladbach, Germany). Purity of immunoselected cells were assessed by flow-cytometric analysis using a phycoerythrin-conjugated CD138 monoclonal antibody by standard procedures.
# as §2
# [5] = test system: AMO1 cells; assay: Combination with proteasome inhibitors or melphalan, 7-AAD cell viability, combination index; type: cell-based, Human; details: for CI value of combination with Bortezomib / CI value of combination with Carfilzomib / CI value of combination with Melphalan: AMO1, 6 days
# Experimental: Bortezomib (PS-341, catalog n° S1013) and Carfilzomib (PR-171, catalog n°S2853) were purchased from Selleck. Combination between miR-17-92 LNA gapmer_06 and proteasome inhibitors was tested in AMO1 cells. 1×10^3 cells were plating in 96-well plates. Bortezomib was used at concentrations ranging from 2 nM to 3.5 nM. Carfilzomib was used at concentrations ranging from 0.4 to 0.7 nM. Measurement of synergistic index (SI) was determined with the following formula: SI=(effect induced by miR-17-92 LNA gapmers and proteasome inhibitors in combination)/effect of miR-17-92 LNA gapmers) +(effect of proteasome inhibitors). Interactions were considered synergistic when the SI was >1.
# Melphalan was purchased from Sigma Aldrich (catalog n°M2011). Combination between miR-17-92 LNA gapmer_06 and melphalan was tested in AMO1 cells. Cell number at plating was 1×10^3 in 96-well plates. Melphalan was used at concentrations ranging from 0.5 μM to 2 μM. Measurement of synergistic index (SI) was determined with the following formula: SI=(effect induced by miR-17-92 LNA gapmers and melphalan in combination)/(effect of miR-17-92 LNA gapmers)+(effect of melphalan). Interactions were considered synergistic when the SI was >1.
# as §2
# AMO1 cells were exposed for 6 days to LNA gapmers_06 or each of Bortezomib, Carfilzomib, Melphalan or to combinations of LNA gapmer_06 and each of these drugs.
# Cells viability was calculated by flow cytometric analysis of 7-AAD staining and the percentage of living cell was compared to the untreated cells.
# In Tables 3-5 tests with the respective combinations performed simultaneously are reported. The effect of LNA gapmer_06 was determined separately for Bortezomib, Carfilzomib, and Melphalan explaining the slightly different values. CI (combination index) values are shown (CI<1 synergism, CI=1 additive, […]). For each monotherapy different doses and combinations were tested. Combination index were calculated using the CalcuSyn software.
# [6] = test system: AMO1/abzb xenografts; assay: In vivo tumor growth of Bortezomib-refractory AMO1/abzb xenografts (IVIS); set-up: species or system mice; details: I.P. 2 mg/kg at day 1-4-8-15-22; Bortezomib-refractory model
# From the text: Male CB-17 severe combined immunodeficient (SCID) mice (6- to 8-weeks old; Harlan Laboratories, Inc., Indianapolis) were housed and monitored in our Animal Research Facility. All experimental procedures and protocols had been approved by the Institutional Ethical Committee (Magna Graecia University) and conducted according to protocols approved by the National Directorate of Veterinary Services (Italy). In accordance with institutional guidelines, mice were sacrificed when tumors reached 2 cm in diameter or in the event of paralysis or major compromise, to prevent unnecessary suffering. Animal experimental procedures have been performed as in previous reports (Di Martino et al, CCR 2012; Di Martino el al. Oncotarget 2013, Di Martino et al PlosOne 2014). […] Mice were also inoculated with 5×10^6 luciferase gene-marked U266, AMO-1, AMO-1/abzb, treatments were performed intraperitoneally (i.p.), and tumor volume were measured by IVIS Lumina II.
# In vivo anti-MM activity of LNA gapmer_06 was next evaluated in NOD/SCID mice bearing subcutaneous AMO1 xenografts. […] Tumors volume were measured using IVIS LUMINA II Imaging We next evaluate the in vivo activity in Bortezomib-refractory model of human MM. […] Tumors volume were measured using IVIS LUMINA II Imaging System.
substance,measurement,setting,value
"gapmer_06: LNA/DNA gapmer, SEQ ID 4 (14 mer): +T*+A*+C*T*T*G*C*T*T*G*G*+C*+T*+T; + LNA, * phosphorothioate (antisense TACTTGCTTGGCTT; sugars from the 5' end l3 d8 l3, all phosphorothioate, methylation of C not given here)",reduction of live cells (7-AAD),[1],20%
same,"biological effect on cell viability (flow cytometry, 7-AAD) compared with single miRNA inhibitors",[2],strongest biological effects
same,apoptosis (AnnexinV/7-AAD staining),[3],increased apoptosis
same,cell viability (7-AAD),[4],unaffected
same,interaction with Bortezomib to induce cell death,"[5]; AMO1 cells, 6 days, combination with Bortezomib",synergizes
same,interaction with Carfilzomib to induce cell death,"[5]; AMO1 cells, 6 days, combination with Carfilzomib",synergizes
same,interaction with Melphalan to induce cell death,"[5]; AMO1 cells, 6 days, combination with Melphalan",synergizes
same,CI value of combination with Bortezomib,[5]; Bortezomib 0.0035 μm + miR-17-92 LNA gapmer 0.5 μl,0.759
same,CI value of combination with Bortezomib,[5]; Bortezomib 0.0035 μm + miR-17-92 LNA gapmer 0.75 μl,0.418
same,CI value of combination with Bortezomib,[5]; Bortezomib 0.0035 μm + miR-17-92 LNA gapmer 1 μl,0.342
same,CI value of combination with Bortezomib,[5]; Bortezomib 0.0035 μm + miR-17-92 LNA gapmer 1.25 μl,0.036
same,CI value of combination with Carfilzomib,[5]; Carfilzomib 0.0004 μm + miR-17-92 LNA gapmer 1.25 μl,0.89
same,CI value of combination with Carfilzomib,[5]; Carfilzomib 0.0005 μm + miR-17-92 LNA gapmer 1.25 μl,0.55
same,CI value of combination with Carfilzomib,[5]; Carfilzomib 0.0006 μm + miR-17-92 LNA gapmer 1.25 μl,0.50
same,CI value of combination with Carfilzomib,[5]; Carfilzomib 0.0007 μm + miR-17-92 LNA gapmer 1.25 μl,0.39
same,CI value of combination with Melphalan,[5]; Melphala 1.5 μm + miR-17-92 LNA gapmer 0.5 μl,0.78
same,CI value of combination with Melphalan,[5]; Melphala 1.5 μm + miR-17-92 LNA gapmer 0.75 μl,0.99
same,CI value of combination with Melphalan,[5]; Melphala 1.5 μm + miR-17-92 LNA gapmer 1 μl,0.65
same,CI value of combination with Melphalan,[5]; Melphala 1.5 μm + miR-17-92 LNA gapmer 1.25 μl,0.56
same,CI value of combination with Melphalan,[5]; Melphala 1.75 μm + miR-17-92 LNA gapmer 0.5 μl,0.66
same,CI value of combination with Melphalan,[5]; Melphala 1.75 μm + miR-17-92 LNA gapmer 0.75 μl,0.89
same,CI value of combination with Melphalan,[5]; Melphala 1.75 μm + miR-17-92 LNA gapmer 1 μl,0.56
same,CI value of combination with Melphalan,[5]; Melphala 1.75 μm + miR-17-92 LNA gapmer 1.25 μl,0.47
same,CI value of combination with Melphalan,[5]; Melphala 2 μm + miR-17-92 LNA gapmer 0.5 μl,0.51
same,CI value of combination with Melphalan,[5]; Melphala 2 μm + miR-17-92 LNA gapmer 0.75 μl,0.59
same,CI value of combination with Melphalan,[5]; Melphala 2 μm + miR-17-92 LNA gapmer 1 μl,0.46
same,CI value of combination with Melphalan,[5]; Melphala 2 μm + miR-17-92 LNA gapmer 1.25 μl,0.26
same,tumor growth (IVIS tumor volume),[6],significant tumor-growth inhibition
